Results taken from PubChem BioAssay AID2060508 (Molecular Pharmacology Branch, DTP, NCI, 2025).

Test system: 454973-116-R2-J3-PDC spheroids, viability, % test/control
Assay: Anticancer human tumor 454973-116-R2-J3-PDC patient-derived pancreatic carcinoma cell line growth inhibition [GQUAD]
Conditions: spheroids with HUVEC and MSC; for IC50: curve of first compound; for viability, T/C: stronger effect = lower value
Text: DNA G-quadruplex Stabilizer Agents in Combinations in Complex Spheroids
A high-throughput screen of multi-cell type tumor spheroids was designed to identify active combinations of DNA G-quadruplex stabilizer agents and targeted small molecules. Complex spheroids include a stromal component modeled by human endothelial cells (HUVEC) and fibroblasts modeled by human mesenchymal stem cells (MSCs). The concentration ranges selected for each drug and investigational agent were based upon clinically achievable concentrations if the clinical Cmax of the agent was known.
Compounds. The drugs and investigational agents: pidnarulex (CX-5461; NSC782164), APTO-253 (NSC789042), BRACO-19 (NSC847499), peposertib (NSC802822), ceralasertib (NSC780249), elimusertib (NSC800525), camonsertib (NSC841442), AZD-1390 (NSC803789), olaparib (NSC753686), talazoparib (NSC767125), ART-558 (NSC835418), sotorasib (NSC818433), MRTX-1133 (NSC836407), SN-38 (NSC673596), topotecan (NSC609699), etoposide (NSC141540), doxorubicin (NSC123127), gemcitabine (NSC613327), 5-fluorouracil (NSC19893), paclitaxel (NSC125973), vemurafenib (NSC761431), panobinostat (NSC761190), R-306465 (JNJ-16241199; NSC773264), adavosertib (NSC754352), TP-3654 (NSC805149), carboplatin (NSC241240), KSQ-4279 (NSC840948), and staurosporine (NSC755774) were obtained from the National Cancer Institute (NCI) Developmental Therapeutics Program Chemical Repository (34). The FDA-approved anticancer drug set is available from the NCI Developmental Therapeutics Program. […] The stock solutions were prepared in dimethyl sulfoxide (DMSO, Sigma-Aldrich, St. Louis, MO, cat. D2650) at 800-fold the tested concentration and stored at -70 degrees C prior to their use. All drugs and investigational agents were tested over a range starting from a high concentration at or near the clinical Cmax and decreasing in half-log increments. If the clinical Cmax for an agent had not been determined, the highest concentration tested was 10 microM.
2.3 Cell Culture. All cells were maintained in an incubator at 37 degrees C and 5% CO2 with 95% humidity. The PDC lines were cultured according to standard operating procedures established by the NCI PDMR. All PDCs were thawed and cultured in Matrigel-coated flasks prepared with a working solution of 1X Ham's F-12 nutrient mix, without supplementation (Invitrogen, cat. 11765054), 100 U/mL penicillin-streptomycin (Invitrogen, cat. 15140122), and 2.5% Matrigel (Corning Inc., cat. 354248) for the first three passages. The 857933-349-R-J2-PDC line was cultured in 6C/Colon 1B media, which includes advanced DMEM/F-12 (Thermo Fisher Scientific, cat. 12634028), 10 mM HEPES (Thermo Fisher Scientific, cat. 15630080), 1X GlutaMAX supplement (Thermo Fisher Scientific, cat. 35050061), 0.1 mg/mL primocin (InvivoGen, cat. ant-pm-2), 10% defined fetal bovine serum, heat inactivated (HyClone Laboratories Inc., cat. SH30070.03HI), 50% L-WRN conditioned media (ATCC, cat. CRL-3276), 1.25 mM N-Acetyl-L-cysteine (Sigma-Aldrich, cat. A9165), 10 mM nicotinamide (Sigma-Aldrich, cat. N0636), 1X B-27 supplement (Thermo Fisher Scientific, cat. 17504044), 1X N-2 supplement (Thermo Fisher Scientific, cat. 17502048), 10 microM Y-27632 dihydrochloride (Tocris Bioscience, cat. 1254), and 50 ng/mL human EGF recombinant protein (Thermo Fisher Scientific, cat. PHG0311). The 485176-168-R4-J1-PDC line was cultured in Panc media, which includes all 6C/Colon 1B media components plus 100 ng/mL human FGF-10 (Thermo Fisher Scientific, cat. 100-26), 500 nM SB-431542 (Selleckchem, cat. S1067), and gastrin (Tocris, cat. 3006).
[…]

[1] = second compound 0.0316 µM, first compound 0.0316 µM
[2] = second compound 0.0316 µM, first compound 0.1 µM
[3] = second compound 0.0316 µM, first compound 0.316 µM
[4] = second compound 0.0316 µM, first compound 1 µM
[5] = second compound 0.0316 µM, first compound 3.16 µM
[6] = second compound 0.0316 µM, first compound 10 µM
[7] = second compound 0.1 µM, first compound 0.0316 µM
[8] = second compound 0.1 µM, first compound 0.1 µM
[9] = second compound 0.1 µM, first compound 0.316 µM
[10] = second compound 0.1 µM, first compound 1 µM
[11] = second compound 0.1 µM, first compound 3.16 µM
[12] = second compound 0.1 µM, first compound 10 µM
[13] = second compound 0.316 µM, first compound 0.0316 µM
[14] = second compound 0.316 µM, first compound 0.1 µM
[15] = second compound 0.316 µM, first compound 0.316 µM
[16] = second compound 0.316 µM, first compound 1 µM
[17] = second compound 0.316 µM, first compound 3.16 µM
[18] = second compound 0.316 µM, first compound 10 µM
[19] = second compound 1 µM, first compound 0.0316 µM
[20] = second compound 1 µM, first compound 0.1 µM
[21] = second compound 1 µM, first compound 0.316 µM
[22] = second compound 1 µM, first compound 1 µM
[23] = second compound 1 µM, first compound 3.16 µM
[24] = second compound 1 µM, first compound 10 µM
[25] = second compound 3.16 µM, first compound 0.0316 µM
[26] = second compound 3.16 µM, first compound 0.1 µM
[27] = second compound 3.16 µM, first compound 0.316 µM
[28] = second compound 3.16 µM, first compound 1 µM
[29] = second compound 3.16 µM, first compound 3.16 µM
[30] = second compound 3.16 µM, first compound 10 µM
[31] = second compound 10 µM, first compound 0.0316 µM
[32] = second compound 10 µM, first compound 0.1 µM
[33] = second compound 10 µM, first compound 0.316 µM
[34] = second compound 10 µM, first compound 1 µM
[35] = second compound 10 µM, first compound 3.16 µM
[36] = second compound 10 µM, first compound 10 µM
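Also: spheroids exposed to compounds for seven days.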

Work on O=C(c1cc(Cc2n[nH]c(=O)c3ccccc23)ccc1F)N1CCN(C(=O)C2CC2)CC1 + Cc1cnc(CNC(=O)c2c(=O)c3ccc(N4CCCN(C)CC4)nc3n3c2sc2ccccc23)cn1 yielded an IC50 (second compound 0.0316 µM) of 9.01 µM, an IC50 (second compound 0.1 µM) of 7.58 µM and an IC50 (second compound 0.316 µM) of 6.21 µM. The IC50 (second compound 1 µM) was over 10 µM, the IC50 (second compound 3.16 µM) was over 10 µM and the IC50 (second compound 10 µM) was under 0.0316 µM. The viability, T/C [1] was 103%, the viability, T/C [2] was 85.1% and the viability, T/C [3] was 90.5%. For the same compound, the viability, T/C [4] was 82.8%, the viability, T/C [5] was 80.9% and the viability, T/C [6] was 46.5%. It also gave a viability, T/C [7] of 81.1%, a viability, T/C [8] of 80.4% and a viability, T/C [9] of 72.2%. It also gave a viability, T/C [10] of 65.5%, a viability, T/C [11] of 65.8% and a viability, T/C [12] of 44.5%. The viability, T/C [13] was 69.1%, the viability, T/C [14] was 67.4% and the viability, T/C [15] was 61.7%. For the same compound, the viability, T/C [16] was 65.3%, the viability, T/C [17] was 54.9% and the viability, T/C [18] was 45.9%. The viability, T/C [19] was 60.5%, the viability, T/C [20] was 65.3% and the viability, T/C [21] was 64%. For the same compound, the viability, T/C [22] was 63.7%, the viability, T/C [23] was 58.2% and the viability, T/C [24] was 55.4%. It also gave a viability, T/C [25] of 74.2%, a viability, T/C [26] of 69.1% and a viability, T/C [27] of 64%. For the same compound, the viability, T/C [28] was 60.9%, the viability, T/C [29] was 58.3% and the viability, T/C [30] was 56.2%. The viability, T/C [31] was 0.27%, the viability, T/C [32] was 18.9% and the viability, T/C [33] was 15.1%. For the same compound, the viability, T/C [34] was 35.9%, the viability, T/C [35] was 0.4% and the viability, T/C [36] was 0.28%.
CCCS(=O)(=O)Nc1ccc(F)c(C(=O)c2c[nH]c3ncc(-c4ccc(Cl)cc4)cc23)c1F + CN(C)c1ccc(Nc2c3ccc(NC(=O)CCN4CCCC4)cc3nc3cc(NC(=O)CCN4CCCC4)ccc23)cc1 was tested, and the IC50 (second compound 0.0316 µM) was 5.41 µM, the IC50 (second compound 0.1 µM) was 6.13 µM and the IC50 (second compound 0.316 µM) was 6.15 µM. For the same compound, the IC50 (second compound 1 µM) was 5.52 µM, the IC50 (second compound 3.16 µM) was 5.44 µM and the IC50 (second compound 10 µM) was 3.72 µM. For the same compound, the viability, T/C [1] was 108%, the viability, T/C [2] was 104% and the viability, T/C [3] was 114%. It also gave a viability, T/C [4] of 110%, a viability, T/C [5] of 85% and a viability, T/C [6] of 10%. It also gave a viability, T/C [7] of 103%, a viability, T/C [8] of 98% and a viability, T/C [9] of 103%. For the same compound, the viability, T/C [10] was 123%, the viability, T/C [11] was 106% and the viability, T/C [12] was 8.55%. It also gave a viability, T/C [13] of 98.5%, a viability, T/C [14] of 101% and a viability, T/C [15] of 108%. The viability, T/C [16] was 105%, the viability, T/C [17] was 102% and the viability, T/C [18] was 11.7%. For the same compound, the viability, T/C [19] was 88.1%, the viability, T/C [20] was 94.3% and the viability, T/C [21] was 104%. The viability, T/C [22] was 87.9%, the viability, T/C [23] was 85.1% and the viability, T/C [24] was 12.6%. For the same compound, the viability, T/C [25] was 90%, the viability, T/C [26] was 74.1% and the viability, T/C [27] was 101%. For the same compound, the viability, T/C [28] was 89.5%, the viability, T/C [29] was 82.4% and the viability, T/C [30] was 13.5%. The viability, T/C [31] was 68.3%, the viability, T/C [32] was 70% and the viability, T/C [33] was 80.3%. For the same compound, the viability, T/C [34] was 67.2%, the viability, T/C [35] was 57.9% and the viability, T/C [36] was 4.49%.
